# Results: EP0007206A1, “Phenethanolamines, their formulations, preparation and use” (ELI LILLY AND COMPANY, priority 1978, dated 1980)
# How the values were obtained:
# Format in all cases: in vivo, mice
# [1] = system: adenocarcinoma tumor resembling human breast tumor (the 755 tumor system); assay: combination chemotherapy with 6 MP, implanted 755 adenocarcinoma (Table 2); conditions: 6 MP 1.5 mg./kg. orally once daily, A 3.75 mg./kg. s.c. twice daily
# Procedure: (§1) In a typical experiment, laboratory mice were infected by a subcutaneous implantation of a tumor tissue in the axillary region of the body. The implantations were accomplished by means of a trocar. Initial tumor size in each animal generally was about 2 square millimeters. Tumor size was then measured periodically as length and width in mm. Typical tumor systems implanted included adenocarcinoma 755, an Aly Fast strain of bronchiogenic carcinoma, and mecca lymphosarcoma. Oncolytic agents utilized in the tests to determine the potentiating effects of the compounds of the invention.include cytoxan, 5-fluorouracil, vindesine, methotrexate and 6-mercaptopurine. […] Ten infected animals normally were selected to receive a known oncolytic agent. Another ten infected animals were administered the known oncolytic agent in addition to a compound of this invention.
# According to the test, 6 MP was administered alone to 10 mice orally at the dose of 1.5 mg./kg. once each day for twenty-eight days. Another group of ten mice received 6 MP daily (1.5 mg./kg.) plus the compound of this invention (A), which was administered subcutaneously at the rate of 3.75 mg./kg. twice daily for twenty-eight days. […] The average tumor size for the test group on the indicated day of measurement is reported in column I under each of the reported days of measurement. In column II of each of the reported days of measurement is recorded the number of surviving animals out of the particular test group.
# 755 adenocarcinoma [2] = assay: combination chemotherapy with 6-mercaptopurine, implanted 755 adenocarcinoma (Table 7); conditions: by day 29; 6 MP 4 mg./kg. i.p. once per day on days 5, 9, 13
# Procedure: (§2) In a typical experiment, laboratory mice were infected by a subcutaneous implantation of a tumor tissue in the axillary region of the body. The implantations were accomplished by means of a trocar. Initial tumor size in each animal generally was about 2 square millimeters. Tumor size was then measured periodically as length and width in mm. Typical tumor systems implanted included adenocarcinoma 755, an Aly Fast strain of bronchiogenic carcinoma, and mecca lymphosarcoma. Oncolytic agents utilized in the tests to determine the potentiating effects of the compounds of the invention.include cytoxan, 5-fluorouracil, vindesine, methotrexate and 6-mercaptopurine. Twenty or thirty infected animals generally were selected as controls and received placebo. Ten infected animals normally were selected to receive a known oncolytic agent. Another ten infected animals were administered the known oncolytic agent in addition to a compound of this invention.
# Mice were infected by implantation of a 755 adenocarcinoma. Thirty mice were held as controls and received only placebo. Ten mice were administered 4 mg./kg. of 6-mercaptopurine (6 MP) intraperitoneally once per day on the fifth, ninth and thirteenth days following implantation. […]
# mecca- lymphosarcoma = assay: combination chemotherapy with 5 FU, implanted mecca lymphosarcoma (Table 3); conditions: 5 FU 4 mg./kg. i.p. once daily, A 18.75 mg./kg. s.c. twice daily
# Procedure: as §2
# A similar study was carried out to determine the synergistic effect of N-(2-phenyl-2-hydroxyethyl)-1,1-dimethyl-3-(4-hydroxyphenyl)-propylaminium bromide (compound A) on the antineoplastic activity of 5-fluorouracil (designated in Table 3 as 5 FU) in the treatment of a mecca- lymphosarcoma in mice. 5-Fluorouracil was administered intraperitoneally at the rate of 4 mg./kg. once each day to a group of five test animals. Another group of five infected animals received the combination of 4 mg./kg. of 5 FU given intraperitoneally once each day plus the potentiating agent (compound A) given subcutaneously twice each day at the dose of 18.75 mg./kg. A group of 20 infected animals received placebo. Measurements of average tumor size for each group of animals were made on the tenth, fourteenth and eighteenth day following initial tumor implantation and dosing. Column I under each of the reported days gives the average tumor size in square millimeters. Column II under each of the reported days gives the number of surviving animals out of each test group. […] Moreover, after eighteen days of treatment, three of the five animals receiving combination chemotherapy were still alive, whereas all of the control animals and those receiving 5-FU alone had died.
# 755 adenocarcinoma [3] = assay: combination chemotherapy with 5-fluorouracil, implanted 755 adenocarcinoma (Table 6); conditions: for number of tumor free animals out of those still living / average tumor size: 5 FU 8 mg./kg. i.p. days 5, 9, 13, B 7.5 mg./kg. s.c. twice daily days 5 through 14
# Procedure: as §1
# 5-Fluorouracil is essentially ineffective against the 755 adenocarcinoma in mice. […] Mice were infected by an implantation of the 755 adenocarcinoma. Thirty animals were given placebo, ten were given 5-fluorouracil alone, and ten were given N-(2-phenyl-2-hydroxyethyl)-1,1-dimethyl-3-(4-aminocarbonylphenyl)propylaminium chloride in combination with 5-fluorouracil. Treatment in all cases was started five days after implantation of the tumor system. 5-Fluorouracil was administered intraperitoneally at the rate of 8 mg./kg. given once on days 5, 9 and 13 following implantation, both to the animals receiving 5-FU alone and the combination. The animals undergoing combination chemotherapy received, in addition to 5-FU, N-(2-phenyl-2-hydroxyethyl)-l,l-dimethyl-3-(4-aminocarbonylphenyl)propylaminium chloride (compound B) at the rate of 7.5 mg./kg. given subcutaneously twice daily on days 5 through 14 of the test. Column I under each of the days of measurement reports the average tumor size in square millimeters of each test group. Column II under each of the days of measurement is the number of tumor free animals out of those still living on that day.
smiles,measurement,setting,value
"Sc1ncnc2nc[nH]c12 [6 MP, 6-mercaptopurine]",number of surviving animals out of test group,[1]; Day 0,10/10
same,average tumor size,[1]; Day 9,100 square millimeters
same,number of surviving animals out of test group,[1]; Day 9,9/10
same,average tumor size,[1]; Day 17,340 square millimeters
same,number of surviving animals out of test group,[1]; Day 17,7/10
same,average tumor size,[1]; Day 23,680 square millimeters
same,number of surviving animals out of test group,[1]; Day 23,6/10
same,average tumor size,[1]; Day 28,1050 square millimeters
same,number of surviving animals out of test group,[1]; Day 28,1/10
same,animals that had died out of ten,755 adenocarcinoma [2],All ten
"O=c1[nH]cc(F)c(=O)[nH]1 [5 FU, 5-fluorouracil]",number of surviving animals out of test group,mecca- lymphosarcoma; Day 0,5/5
same,average tumor size,mecca- lymphosarcoma; Day 10,490 square millimeters
same,number of surviving animals out of test group,mecca- lymphosarcoma; Day 10,5/5
same,average tumor size,mecca- lymphosarcoma; Day 14,490 square millimeters
same,number of surviving animals out of test group,mecca- lymphosarcoma; Day 14,4/5
same,number of surviving animals out of test group,mecca- lymphosarcoma; Day 18,0/5
same,number of tumor free animals out of those still living,755 adenocarcinoma [3]; Day 0,0/10
same,average tumor size,755 adenocarcinoma [3]; Day 5,95 square millimeters
same,number of tumor free animals out of those still living,755 adenocarcinoma [3]; Day 5,0/10
same,average tumor size,755 adenocarcinoma [3]; Day 12,350 square millimeters
same,number of tumor free animals out of those still living,755 adenocarcinoma [3]; Day 12,0/10
same,average tumor size,755 adenocarcinoma [3]; Day 17,630 square millimeters
same,number of tumor free animals out of those still living,755 adenocarcinoma [3]; Day 17,0/9
same,average tumor size,755 adenocarcinoma [3]; Day 23,680 square millimeters
same,number of tumor free animals out of those still living,755 adenocarcinoma [3]; Day 23,0/6
same,number of tumor free animals out of those still living,755 adenocarcinoma [3]; Day 29,0/0
same,number of tumor free animals out of those still living,755 adenocarcinoma [3]; Day 73,0/0
same,effectiveness in the treatment of the 755 adenocarcinoma,"755 adenocarcinoma [3]; mice, summary in words of Table 6",ineffective
